Results published in patent publication US20240228458A1, “PYRIMIDINE DERIVATIVE HAVING PROTEIN KINASE INHIBITORY ACTIVITY, AND THERAPEUTIC PHARMACEUTICAL COMPOSITION COMPRISING SAME” (THERAPEX CO., LTD., priority 2021, published 2024).

Experiments:
Type in all cases: cell-based
[1] = test system: Ba/F3 cells expressing L858R/T790M (EGFR-LT); assay: Growth inhibition (GI50) of Ba/F3 cells expressing L858R/T790M (EGFR-LT), Celltiter glo; details: Mus musculus, BaF3, 72 h
In short: (§1)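 Ba/F3 cells carrying each EGFR variant were plated at 100,000 cells/ml; after 4 h, compound was added as 10-point 4-fold dilutions (top stock 2 mM, 0.5% DMSO). After 72 h at 37 °C, viability was read by CellTiter-Glo; GI50 is the molar concentration (μM) giving 50% growth inhibition.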

parental Ba/F3 cell line = assay: Growth inhibition (GI50) of the parental Ba/F3 cell line (not introduced with EGFR variants), Celltiter glo; details: Mus musculus, BaF3, 72 h, parental Ba/F3 cells
In short: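 Viable cell count by CellTiter-Glo after 72 h at 37 °C gave GI50 values (μM, 50% growth inhibition). Cells lacking EGFR variants were seeded at 100,000 cells/ml and dosed 4 h later with 4-fold serial dilutions from a 2 mM stock, 0.5% DMSO.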

[2] = test system: Ba/F3 cells expressing L858R/T790M/C797S (EGFR-LTC); assay: Growth inhibition (GI50) of Ba/F3 cells expressing L858R/T790M/C797S (EGFR-LTC), Celltiter glo; details: Mus musculus, BaF3, 72 h
In short: as §1

[3] = test system: Ba/F3 cells expressing del19/T790M (EGFR-DT); assay: Growth inhibition (GI50) of Ba/F3 cells expressing del19/T790M (EGFR-DT), Celltiter glo; details: Mus musculus, BaF3, 72 h
In short: as §1

[4] = test system: Ba/F3 cells expressing EGFR-wt; assay: Growth inhibition (GI50) of Ba/F3 cells expressing EGFR-wt, Celltiter glo; details: Mus musculus, BaF3, 72 h
In short: as §1

[5] = test system: Ba/F3 cells expressing del19/T790M/C797S (EGFR-DTC); assay: Growth inhibition (GI50) of Ba/F3 cells expressing del19/T790M/C797S (EGFR-DTC), Celltiter glo; details: Mus musculus, BaF3, 72 h
In short: as §1

| SMILES | GI50 [1] [nM] | GI50 [2] [nM] | GI50 [3] [nM] | GI50 [4] [nM] | GI50 [5] [nM] | GI50 (parental Ba/F3 cell line) [nM] |
| --- | --- | --- | --- | --- | --- | --- |
| COc1cc(N2CCC(N3CCN(C)CC3)CC2)c(C)cc1Nc1ncc(Cl)c(Nc2cc(Cl)ccc2P(C)(C)=O)n1 [Example 153, (4-chloro-2-((5-chloro-2-((2-methoxy-5-methyl-4-(4-(4-methylpiperazin-1-yl)piperidin-1-yl)phenyl)amino)pyrimidin-4-yl)amino)phenyl)dimethylphosphine oxide] | 500 to 2000 | 100 to 500 | 100 to 500 | 500 to 2000 | 100 to 500 | 2000 to 10000 |
| Cc1cc(Nc2ncc(Cl)c(Nc3cc(Cl)ccc3P(C)(C)=O)n2)c(Cl)cc1N1CCC(N2CCN(C)CC2)CC1 [Example 154, (4-chloro-2-((5-chloro-2-((2-chloro-5-methyl-4-(4-(4-methylpiperazin-1-yl)piperidin-1-yl)phenyl)amino)pyrimidin-4-yl)amino)phenyl)dimethylphosphine oxide] | 2000 to 10000 | 500 to 2000 | 500 to 2000 | 2000 to 10000 | 100 to 500 | 2000 to 10000 |
| Cc1cc(Nc2ncc(Cl)c(Nc3cc(Cl)ccc3NS(C)(=O)=O)n2)c(Cl)cc1N1CCC(N2CCC(N(C)C)C2)CC1 (stereo not drawn) [Example 157, N-(4-chloro-2-((5-chloro-2-((2-chloro-4-(4-(3-(dimethylamino)pyrrolidin-1-yl)piperidin-1-yl)-5-methylphenyl)amino)pyrimidin-4-yl)amino)phenyl)methanesulfonamide] | 25 to 100 | 25 to 100 | 25 to 100 | 100 to 500 | 100 to 500 | 500 to 2000 |
| Cc1cc(Nc2ncc(Cl)c(Nc3cc(Cl)ccc3NS(C)(=O)=O)n2)c(Cl)cc1N1CCC(N2CCN(C)CC2)CC1 [Example 158, N-(4-chloro-2-((5-chloro-2-((2-chloro-5-methyl-4-(4-(4-methylpiperazin-1-yl)piperidin-1-yl)phenyl)amino)pyrimidin-4-yl)amino)phenyl)methanesulfonamide] | 25 to 100 | 1 to 25 | 25 to 100 | 500 to 2000 | 1 to 25 | 2000 to 10000 |
| COc1cc(N2CCC(N3CCN(C)CC3)CC2)c(C)cc1Nc1ncc(Cl)c(Nc2cc(C(C)C)ccc2NS(C)(=O)=O)n1 [Example 160, N-(2-((5-chloro-2-((2-methoxy-5-methyl-4-(4-(4-methylpiperazin-1-yl)piperidin-1-yl)phenyl)amino)pyrimidin-4-yl)amino)-4-isopropylphenyl)methanesulfonamide] | 100 to 500 | 100 to 500 | 100 to 500 | 500 to 2000 | 25 to 100 | 2000 to 10000 |
| COc1cc(N2CCC(N3CCN(C)CC3)CC2)c(Cl)cc1Nc1ncc(Cl)c(Nc2cc(C(C)C)ccc2NS(C)(=O)=O)n1 [Example 161, N-(2-((5-chloro-2-((5-chloro-2-methoxy-4-(4-(4-methylpiperazin-1-yl)piperidin-1-yl)phenyl)amino)pyrimidin-4-yl)amino)-4-isopropylphenyl)methanesulfonamide] | 500 to 2000 | 500 to 2000 | 100 to 500 | 2000 to 10000 | 100 to 500 | 2000 to 10000 |
| Cc1cc(Nc2ncc(Cl)c(Nc3cc(Cl)ccc3NS(C)(=O)=O)n2)c(Cl)cc1N1CCC(N2CCCN(C)CC2)CC1 [Example 162, N-(4-chloro-2-((5-chloro-2-((2-chloro-5-methyl-4-(4-(4-methyl-1,4-diazepan-1-yl)piperidin-1-yl)phenyl)amino)pyrimidin-4-yl)amino)phenyl)methanesulfonamide] | 2000 to 10000 | 2000 to 10000 | 2000 to 10000 | 500 to 2000 | 100 to 500 | 2000 to 10000 |
| COc1cc(N2CCC(N3CCCN(C)CC3)CC2)c(Cl)cc1Nc1ncc(Cl)c(Nc2cc(Cl)ccc2NS(C)(=O)=O)n1 [Example 163, N-(4-chloro-2-((5-chloro-2-((5-chloro-2-methoxy-4-(4-(4-methyl-1,4-diazepan-1-yl)piperidin-1-yl)phenyl)amino)pyrimidin-4-yl)amino)phenyl)methanesulfonamide] | 2000 to 10000 | 2000 to 10000 | 2000 to 10000 | 2000 to 10000 | 100 to 500 | > 10000 |
| COc1cc(N2CCC(N3CCN(C)CC3)CC2)c(C)cc1Nc1nnc(Cl)c(Nc2ccc(F)cc2NS(C)(=O)=O)n1 [Example 164, N-(2-((6-chloro-3-((2-methoxy-5-methyl-4-(4-(4-methylpiperazin-1-yl)piperidin-1-yl)phenyl)amino)-1,2,4-triazin-5-yl)amino)-5-fluorophenyl)methanesulfonamide] | 2000 to 10000 | 2000 to 10000 | 2000 to 10000 | 2000 to 10000 | 100 to 500 | > 10000 |
| COc1cc(N2CCC(N3CCCN(C)CC3)CC2)c(C)cc1Nc1ncc(Cl)c(Nc2cc3c(cc2NS(C)(=O)=O)CCO3)n1 [Example 165, N-(6-((5-chloro-2-((2-methoxy-5-methyl-4-(4-(4-methyl-1,4-diazepan-1-yl)piperidin-1-yl)phenyl)amino)pyrimidin-4-yl)amino)-2,3-dihydrobenzofuran-5-yl)methanesulfonamide] | 25 to 100 | 25 to 100 | 25 to 100 | 500 to 2000 | 25 to 100 | 2000 to 10000 |
| CN(C)CCCn1cc(Nc2ncc(Cl)c(Nc3cc(Cl)ccc3NS(C)(=O)=O)n2)cn1 [Example 167, N-(4-chloro-2-((5-chloro-2-((1-(3-(dimethylamino)propyl)-1H-pyrazol-4-yl)amino)pyrimidine-4-yl)amino)phenyl)methanesulfonamide] | 2000 to 10000 | 2000 to 10000 | 2000 to 10000 | 500 to 2000 | 100 to 500 | 2000 to 10000 |

Further lines, with some results ahead:

| GI50 [1] [nM] | GI50 [2] [nM] | GI50 [3] [nM] | GI50 [4] [nM] | GI50 [5] [nM] | SMILES | GI50 (parental Ba/F3 cell line) [nM] |
| --- | --- | --- | --- | --- | --- | --- |
| 25 to 100 | 1 to 25 | 1 to 25 | 25 to 100 | 1 to 25 | COc1cc(N2CCC(N3CCN(C)CC3)CC2)c(C)cc1Nc1ncc(Br)c(Nc2cc(Cl)ccc2N(C)S(C)(=O)=O)n1 [Example 155, N-(2-((5-bromo-2-((2-methoxy-5-methyl-4-(4-(4-methylpiperazin-1-yl)piperidin-1-yl)phenyl)amino)pyrimidin-4-yl)amino)-4-chlorophenyl)-N-methylmethanesulfonamide] | 100 to 500 |
| 1 to 25 | 1 to 25 | 1 to 25 | 1 to 25 | 1 to 25 | COc1cc(N2CCC(N3CCN(C)CC3)CC2)c(Cl)cc1Nc1ncc(Br)c(Nc2cc(Cl)ccc2N(C)S(C)(=O)=O)n1 [Example 156, N-(2-((5-bromo-2-((5-chloro-2-methoxy-4-(4-(4-methylpiperazin-1-yl)piperidin-1-yl)phenyl)amino)pyrimidin-4-yl)amino)-4-chlorophenyl)-N-methylmethanesulfonamide] | 100 to 500 |
| 1 to 25 | 1 to 25 | 1 to 25 | 25 to 100 | 1 to 25 | COc1cc(N2CCC(N3CCN(C)CC3)CC2)c(Cl)cc1Nc1ncc(Cl)c(Nc2cc3c(cc2NS(C)(=O)=O)CCO3)n1 [Example 168, N-(6-((5-chloro-2-((5-chloro-2-methoxy-4-(4-(4-methylpiperazin-1-yl)piperidin-1-yl)phenyl)amino)pyrimidin-4-yl)amino)-2,3-dihydrobenzofuran-5-yl)methanesulfonamide] | 2000 to 10000 |
| 1 to 25 | 1 to 25 | 1 to 25 | 100 to 500 | 1 to 25 | COc1cc(N2CCC(N3CCN(C)CC3)CC2)c(C)cc1Nc1ncc(Br)c(Nc2cc3c(cc2NS(C)(=O)=O)CCO3)n1 [Example 169, N-(6-((5-bromo-2-((2-methoxy-5-methyl-4-(4-(4-methylpiperazin-1-yl)piperidin-1-yl)phenyl)amino)pyrimidin-4-yl)amino)-2,3-dihydrobenzofuran-5-yl)methanesulfonamide] | 500 to 2000 |
| 1 to 25 | 1 to 25 | 1 to 25 | 25 to 100 | 1 to 25 | COc1cc(N2CCC(N3CCN(C)CC3)CC2)c(Cl)cc1Nc1ncc(Cl)c(Nc2cc(Cl)ccc2N(C)S(C)(=O)=O)n1 [Example 170, N-(4-chloro-2-((5-chloro-2-((5-chloro-2-methoxy-4-(4-(4-methylpiperazin-1-yl)piperidin-1-yl)phenyl)amino)pyrimidin-4-yl)amino)phenyl)-N-methylmethanesulfonamide] | 100 to 500 |
| 1 to 25 | 1 to 25 | 25 to 100 | 100 to 500 | 1 to 25 | Cc1cc(Nc2ncc(Cl)c(Nc3cc4c(cc3NS(C)(=O)=O)CCO4)n2)c(Cl)cc1N1CCC(N2CCCN(C)CC2)CC1 [Example 172, N-(6-((5-chloro-2-((2-chloro-5-methyl-4-(4-(4-methyl-1,4-diazepan-1-yl)piperidin-1-yl)phenyl)amino)pyrimidin-4-yl)amino)-2,3-dihydrobenzofuran-5-yl)methanesulfonamide] | 100 to 500 |
